Laboratory results taken from article PMC6364417, “Kinase inhibitor library screening identifies synergistic drug combinations effective in sensitive and resistant melanoma cells” (Journal of Experimental & Clinical Cancer Research : CR, 2019).

Legend:
Assay in all cases: Kinase inhibitor library screening, PrestoBlue cell viability, 1 or 10 μM, 72 h
[1] = test system: 501Mel-XP cells (Vemurafenib-resistant); details: for cell viability (kinase inhibitor library screening) / Cell viability in kinase inhibitor library screening, 501Mel XP, 1μΜ / Cell viability in kinase inhibitor library screening, 501Mel XP, 10μΜ: 501Mel XP, in %
A375 cells (parental) = details: for Cell viability in kinase inhibitor library screening, A375 Parental, 10μΜ / Cell viability in kinase inhibitor library screening, A375 Parental, 1μΜ: 72 h
[2] = test system: IGR37-GP cells (Dabrafenib-resistant); details: for Cell viability in kinase inhibitor library screening, IGR37 GP, 10μΜ / Cell viability in kinase inhibitor library screening, IGR37 GP, 1μΜ: 72 h
[3] = test system: 501Mel-GP cells (Dabrafenib-resistant); details: for cell viability (kinase inhibitor library screening) / Cell viability in kinase inhibitor library screening, 501Mel GP, 1μΜ / Cell viability in kinase inhibitor library screening, 501Mel GP, 10μΜ: 501Mel GP, in %
501Mel cells (parental) = details: for cell viability (kinase inhibitor library screening) / Cell viability in kinase inhibitor library screening, 501Mel Parental, 1μΜ / Cell viability in kinase inhibitor library screening, 501Mel Parental, 10μΜ: 501Mel Parental, in %
Method in brief: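 Readout: PrestoBlue signal on a monochromator plate reader, given as percent viability relative to untreated controls. Parental and drug-resistant (Vemurafenib XP, Dabrafenib GP) sublines were tested; at least duplicates per line.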

[4] = test system: A375-XP cells (Vemurafenib-resistant); details: for Cell viability in kinase inhibitor library screening, A375 XP, 1μΜ / Cell viability in kinase inhibitor library screening, A375 XP, 10μΜ: 72 h
[5] = test system: A375-GP cells (Dabrafenib-resistant); details: for cell viability (kinase inhibitor library screening) / Cell viability in kinase inhibitor library screening, A375 GP, 1μΜ / Cell viability in kinase inhibitor library screening, A375 GP, 10μΜ: A375 GP; for cell viability (kinase inhibitor library screening): in %; for Cell viability in kinase inhibitor library screening, A375 GP, 1μΜ / Cell viability in kinase inhibitor library screening, A375 GP, 10μΜ: 72 h
IGR37 cells (parental) = details: for Cell viability in kinase inhibitor library screening, IGR37 Parental, 1μΜ / Cell viability in kinase inhibitor library screening, IGR37 Parental, 10μΜ: 72 h
[6] = test system: IGR37-XP cells (Vemurafenib-resistant); details: for Cell viability in kinase inhibitor library screening, IGR37 XP, 10μΜ / Cell viability in kinase inhibitor library screening, IGR37 XP, 1μΜ: 72 h

SMILES	Cell viability in kinase inhibitor library screening, 501Mel XP, 1μΜ ([1]; 1μΜ, 72 h)	Cell viability in kinase inhibitor library screening, 501Mel XP, 10μΜ ([1]; 10μΜ, 72 h)	Cell viability in kinase inhibitor library screening, A375 Parental, 10μΜ (A375 cells (parental); A375 Parental, 10μΜ)	Cell viability in kinase inhibitor library screening, A375 Parental, 1μΜ (A375 cells (parental); A375 Parental)	Cell viability in kinase inhibitor library screening, IGR37 GP, 10μΜ ([2]; IGR37 GP)	Cell viability in kinase inhibitor library screening, IGR37 GP, 1μΜ ([2]; IGR37 GP, 1μΜ, in %)	Cell viability in kinase inhibitor library screening, 501Mel GP, 1μΜ ([3]; 1μΜ, 72 h)	Cell viability in kinase inhibitor library screening, 501Mel GP, 10μΜ ([3]; 10μΜ, 72 h)	Cell viability in kinase inhibitor library screening, 501Mel Parental, 1μΜ (501Mel cells (parental); 1μΜ, 72 h)	Cell viability in kinase inhibitor library screening, 501Mel Parental, 10μΜ (501Mel cells (parental); 10μΜ, 72 h)	Cell viability in kinase inhibitor library screening, A375 XP, 1μΜ ([4]; A375 XP)	Cell viability in kinase inhibitor library screening, A375 XP, 10μΜ ([4]; A375 XP, 10μΜ)	Cell viability in kinase inhibitor library screening, A375 GP, 1μΜ ([5]; 1μΜ)	Cell viability in kinase inhibitor library screening, A375 GP, 10μΜ ([5]; 10μΜ)	Cell viability in kinase inhibitor library screening, IGR37 Parental, 1μΜ (IGR37 cells (parental); IGR37 Parental, in %)	Cell viability in kinase inhibitor library screening, IGR37 Parental, 10μΜ (IGR37 cells (parental); IGR37 Parental, 10μΜ, in %)	Cell viability in kinase inhibitor library screening, IGR37 XP, 10μΜ ([6]; IGR37 XP, 10μΜ)	Cell viability in kinase inhibitor library screening, IGR37 XP, 1μΜ ([6]; IGR37 XP, in %)	other results
O=c1sn(-c2cccc3ccccc23)c(=O)n1Cc1ccccc1 [Tideglusib]	–	–	–	–	–	–	–	–	–	–	–	–	–	–	–	–	–	–	viability at 1 µM ([1]; Homo sapiens, 72 h, read-out: cell viability, 501Mel XP, 1μΜ): 98.8%; viability at 10 µM ([1]; Homo sapiens, 72 h, read-out: cell viability, 501Mel XP, 10μΜ): 90.4%; viability at 1 µM (A375 cells (parental); Homo sapiens, A-375, 72 h, read-out: cell viability, A375 Parental, 1μΜ): 95.4%; viability at 10 µM (A375 cells (parental); Homo sapiens, A-375, 72 h, read-out: cell viability, A375 Parental, 10μΜ): 97.4%; viability at 1 µM ([2]; Homo sapiens, IGR-37, 72 h, read-out: cell viability, IGR37 GP, 1μΜ): 94.6%; viability at 10 µM ([2]; Homo sapiens, IGR-37, 72 h, read-out: cell viability, IGR37 GP, 10μΜ): 95.9%; viability at 1 µM ([3]; Homo sapiens, 72 h, read-out: cell viability, 501Mel GP, 1μΜ): 102%; viability at 10 µM ([3]; Homo sapiens, 72 h, read-out: cell viability, 501Mel GP, 10μΜ): 91.6%; viability at 1 µM (501Mel cells (parental); Homo sapiens, 72 h, read-out: cell viability, 501Mel Parental, 1μΜ): 110%; viability at 10 µM (501Mel cells (parental); Homo sapiens, 72 h, read-out: cell viability, 501Mel Parental, 10μΜ): 105%; viability at 1 µM ([4]; Homo sapiens, A-375, 72 h, read-out: cell viability, A375 XP, 1μΜ): 105%; viability at 10 µM ([4]; Homo sapiens, A-375, 72 h, read-out: cell viability, A375 XP, 10μΜ): 108%; viability at 1 µM ([5]; Homo sapiens, A-375, 72 h, read-out: cell viability, A375 GP, 1μΜ): 98.4%; viability at 10 µM ([5]; Homo sapiens, A-375, 72 h, read-out: cell viability, A375 GP, 10μΜ): 97.5%; viability at 1 µM (IGR37 cells (parental); Homo sapiens, IGR-37, 72 h, read-out: cell viability, IGR37 Parental, 1μΜ): 103%; viability at 10 µM (IGR37 cells (parental); Homo sapiens, IGR-37, 72 h, read-out: cell viability, IGR37 Parental, 10μΜ): 99.7%; viability at 1 µM ([6]; Homo sapiens, IGR-37, 72 h, read-out: cell viability, IGR37 XP, 1μΜ): 96.4%; viability at 10 µM ([6]; Homo sapiens, IGR-37, 72 h, read-out: cell viability, IGR37 XP, 10μΜ): 74.1%
COc1ccc2cc(-c3nc(-c4ccc([S+](C)[O-])cc4)[nH]c3-c3ccncc3)ccc2c1 (stereo not shown) [Tie2 kinase inhibitor]	–	–	–	–	–	–	–	–	–	–	–	–	–	–	–	–	–	–	cell viability (kinase inhibitor library screening) ([1]; 1μΜ): 96.5; cell viability (kinase inhibitor library screening) ([1]; 10μΜ): 64.5; cell viability (kinase inhibitor library screening) (A375 cells (parental); A375 Parental, 10μΜ, in %): 96.4; cell viability (kinase inhibitor library screening) ([2]; IGR37 GP, 1μΜ, in %): 94.1; cell viability (kinase inhibitor library screening) ([3]; 1μΜ): 107.0; cell viability (kinase inhibitor library screening) ([3]; 10μΜ): 87.5; cell viability (kinase inhibitor library screening) (501Mel cells (parental); 1μΜ): 96.1; cell viability (kinase inhibitor library screening) (501Mel cells (parental); 10μΜ): 90.5; cell viability (kinase inhibitor library screening) ([4]; A375 XP, 10μΜ, in %): 97.1; cell viability (kinase inhibitor library screening) ([5]; 1μΜ): 96.7; cell viability (kinase inhibitor library screening) ([5]; 10μΜ): 82.6; cell viability (kinase inhibitor library screening) (IGR37 cells (parental); IGR37 Parental, 10μΜ, in %): 103.5; cell viability (kinase inhibitor library screening) ([6]; IGR37 XP, 10μΜ, in %): 62.0
CCC(=O)N1CCN(c2ccc(-n3c(=O)ccc4cnc5ccc(-c6cnc7ccccc7c6)cc5c43)cc2C(F)(F)F)CC1 [Torin 1]	14.1	2.6	7.2	20.5	12.5%	40.0	20.9	10.6	15.1	3.3	20.4	13.4	22.1	6.9	23.8	10.7	5.2%	30.3	–
Nc1ccc(-c2ccc3ncc4ccc(=O)n(-c5cccc(C(F)(F)F)c5)c4c3c2)cn1 [Torin 2]	3.5	0.164	3.6	10.7	2.7%	20.7	10.9	0.7	5.6	0.8	12.1	2.9	7.9	4.0	13.2	0.851	1.3%	14.1	–
